From patent US20260355196A1, “INHIBITORS AND DEGRADERS OF PIP4K PROTEIN” (Larkspur Biosciences, Inc., priority 2023, published 2026)

Each compound was assayed against T1, PIP4K2C (Homo sapiens, UniProt Q8TBX8) (assay: Enzyme Binding Assay (KINOMEscan): active site-directed competition binding to an immobilized ligand). Settings: 11-point dose response, duplicate, top concentration 5 micromolar; read-out: Pip4k2c Kd: IC50.
T1 sequence (Q8TBX8 1-421): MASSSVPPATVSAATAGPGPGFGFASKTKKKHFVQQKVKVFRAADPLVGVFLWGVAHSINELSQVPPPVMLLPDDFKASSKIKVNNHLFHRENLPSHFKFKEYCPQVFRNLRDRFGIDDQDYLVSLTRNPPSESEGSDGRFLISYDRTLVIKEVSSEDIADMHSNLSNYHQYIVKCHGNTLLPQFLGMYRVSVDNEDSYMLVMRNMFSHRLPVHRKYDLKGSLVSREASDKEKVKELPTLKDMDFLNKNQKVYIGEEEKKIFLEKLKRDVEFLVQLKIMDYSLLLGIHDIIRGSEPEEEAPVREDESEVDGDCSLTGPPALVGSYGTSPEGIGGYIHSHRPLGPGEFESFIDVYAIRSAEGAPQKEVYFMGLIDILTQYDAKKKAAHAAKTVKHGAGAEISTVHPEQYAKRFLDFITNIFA
Set-up: purchased Eurofins DiscoverX, San Diego, CA 87-0007-1094
Outline: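 Active site-directed competition binding against an immobilized ligand. 11-point dose-response in duplicate, top concentration 5 micromolar; IC50 from a Hill equation fitted by the Levenberg-Marquardt algorithm.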

| IC50 | Compound |
| --- | --- |
| < 500 nM | CC(=O)N[C@H]1CC[C@H](Nc2ncc(F)c(-c3ccnc(N4CCCC4=O)c3)n2)CC1 [Compound 261, trans-N-(4-((5-fluoro-4-(2-(2-oxopyrrolidin-1-yl)pyridin-4-yl)pyrimidin-2-yl)amino)cyclohexyl)acetamide] |
| < 500 nM | NC(=O)[C@H]1CC[C@H](Nc2ncc(F)c(-c3ccnc(N4CCCC4=O)c3)n2)CC1 [Compound 262, trans-(1r,4r)-4-((5-fluoro-4-(2-(2-oxopyrrolidin-1-yl)pyridin-4-yl)pyrimidin-2-yl)amino)cyclohexane-1-carboxamide] |
| < 500 nM | NC(=O)[C@H]1CC[C@H](Nc2ncc(F)c(-c3ccnc(N4CCOC4=O)c3)n2)CC1 [Compound 263, trans-(1r,4r)-4-((5-fluoro-4-(2-(2-oxooxazolidin-3-yl)pyridin-4-yl)pyrimidin-2-yl)amino)cyclohexane-1-carboxamide] |
| < 500 nM | NC(=O)[C@H]1CC[C@H](Nc2ncc(F)c(-c3cccc(N4CCCCC4=O)c3)n2)CC1 [Compound 264, trans-4-((5-fluoro-4-(3-(2-oxopiperidin-1-yl)phenyl)pyrimidin-2-yl)amino)cyclohexane-1-carboxamide] |
| < 500 nM | CC(=O)N[C@H]1CC[C@H](Nc2ncc(F)c(-c3ccnc(-n4ccccc4=O)c3)n2)CC1 [Compound 265, trans-N-(4-((5-fluoro-4-(2-oxo-2H-[1,2′-bipyridin]-4′-yl)pyrimidin-2-yl)amino)cyclohexyl)acetamide] |
| < 500 nM | CC(=O)N[C@H]1CC[C@H](Nc2ncc(F)c(-c3ccnc(N4CCCOC4=O)c3)n2)CC1 [Compound 266, trans-N-(4-((5-fluoro-4-(2-(2-oxo-1,3-oxazinan-3-yl)pyridin-4-yl)pyrimidin-2-yl)amino)cyclohexyl)acetamide] |
| < 500 nM | CC(=O)N[C@H]1CC[C@H](Nc2ncc(F)c(-c3cccc(N4CCOCC4=O)c3)n2)CC1 [Compound 267, trans-N-(4-((5-fluoro-4-(3-(3-oxomorpholino)phenyl)pyrimidin-2-yl)amino)cyclohexyl)acetamide] |
| < 500 nM | NC(=O)[C@H]1CC[C@H](Nc2ncc(F)c(-c3cccc(N4CCOCC4=O)c3)n2)CC1 [Compound 268, trans-4-((5-fluoro-4-(3-(3-oxomorpholino)phenyl)pyrimidin-2-yl)amino)cyclohexane-1-carboxamide] |
| < 500 nM | CC(=O)N[C@H]1CC[C@H](Nc2ncc(F)c(-c3cccc(N4CCOCC4=O)n3)n2)CC1 [Compound 270, trans-N-(4-((5-fluoro-4-(6-(3-oxomorpholino)pyridin-2-yl)pyrimidin-2-yl)amino)cyclohexyl)acetamide] |
| < 500 nM | NC(=O)[C@H]1CC[C@H](Nc2ncc(F)c(-c3cccc(N4CCOCC4=O)n3)n2)CC1 [Compound 271, trans-4-((5-fluoro-4-(6-(3-oxomorpholino)pyridin-2-yl)pyrimidin-2-yl)amino)cyclohexane-1-carboxamide] |
| < 500 nM | CC(=O)N[C@H]1CC[C@H](Nc2ncc(F)c(-c3ccnc(N4CCOCC4=O)c3)n2)CC1 [Compound 272, trans-N-(4-((5-fluoro-4-(2-(3-oxomorpholino)pyridin-4-yl)pyrimidin-2-yl)amino)cyclohexyl)acetamide] |
| < 500 nM | NC(=O)[C@H]1CC[C@H](Nc2ncc(F)c(-c3ccnc(N4CCOCC4=O)c3)n2)CC1 [Compound 273, trans-4-((5-fluoro-4-(2-(3-oxomorpholino)pyridin-4-yl)pyrimidin-2-yl)amino)cyclohexane-1-carboxamide] |
| < 500 nM | NC(=O)[C@H]1CC[C@H](Nc2ncc(F)c(-c3cccc(N4CCCCC4=O)n3)n2)CC1 [Compound 274, trans-4-((5-fluoro-4-(6-(2-oxopiperidin-1-yl)pyridin-2-yl)pyrimidin-2-yl)amino)cyclohexane-1-carboxamide] |
| < 500 nM | CC(=O)N1CCC(Nc2ncc(F)c(-c3cccc(N4CCOCC4)c3)n2)CC1 [Compound 606, 1-[4-[[5-fluoro-4-(3-morpholinophenyl)pyrimidin-2-yl]amino]-1-piperidyl]ethanone] |
| < 500 nM | NC(=O)[C@H]1CC[C@H](Nc2ncc(F)c(-c3cccc(N4CCOCC4)c3)n2)CC1 [Compound 607, trans-4-((5-fluoro-4-(3-morpholinophenyl)pyrimidin-2-yl)amino) cyclohexane-1-carboxamide] |
| < 500 nM | CC(=O)N[C@H]1CC[C@H](Nc2ncc(F)c(-c3cccc(N4CCOCC4)c3)n2)CC1 [Compound 608, trans-N-(4-((5-fluoro-4-(3-morpholinophenyl)pyrimidin-2-yl)amino)cyclohexyl)acetamide] |
| < 500 nM | CC(=O)N[C@H]1CC[C@H](Nc2ncc(F)c(-c3cccc(-c4ccccc4)c3)n2)CC1 [Compound 609, trans-N-(4-((4-([1,1′-biphenyl]-3-yl)-5-fluoropyrimidin-2-yl)amino)cyclohexyl)acetamide] |

| IC50 | Compound |
| --- | --- |
| < 500 nM | NC(=O)[C@H]1CC[C@H](Nc2ncc(F)c(-c3cccc(-c4ccccc4)c3)n2)CC1 [Compound 610, trans-4-((4-([1,1′-biphenyl]-3-yl)-5-fluoropyrimidin-2-yl)amino)cyclohexane-1-carboxamide] |
| < 500 nM | CC(=O)N1CCC(Nc2ncc(F)c(-c3cccc(-c4ccccc4)c3)n2)CC1 [Compound 611, 1-(4-((4-([1,1′-biphenyl]-3-yl)-5-fluoropyrimidin-2-yl)amino)piperidin-1-yl)ethan-1-one] |
| < 500 nM | NC(=O)[C@@H]1CCC[C@H](Nc2ncc(F)c(-c3cccc(-c4ccccc4)c3)n2)C1 [Compound 612, (1R,3S)-3-((4-([1,1′-biphenyl]-3-yl)-5-fluoropyrimidin-2-yl)amino) cyclohexane-1-carboxamide] |
| < 500 nM | CC(=O)N1CC[C@H](Nc2ncc(F)c(-c3cccc(-n4ccccc4=O)c3)n2)C1 [Compound 613, (S)-1-(3-(2-((1-acetylpyrrolidin-3-yl)amino)-5-fluoropyrimidin-4-yl)phenyl)pyridin-2(1H)-one] |
| < 500 nM | CC(=O)N1CCC(Nc2ncc(F)c(-c3cccc(-n4ccccc4=O)c3)n2)CC1 [Compound 614, 1-(3-(2-((1-acetylpiperidin-4-yl)amino)-5-fluoropyrimidin-4-yl)phenyl)pyridin-2(1H)-one] |
| < 500 nM | NC(=O)[C@H]1CC[C@H](Nc2ncc(F)c(-c3cccc(N4CCCCC4)c3)n2)CC1 [Compound 615, trans-4-((5-fluoro-4-(3-(piperidin-1-yl)phenyl)pyrimidin-2-yl)amino)cyclohexane-1-carboxamide] |
| < 500 nM | CC(=O)N[C@H]1CC[C@H](Nc2ncc(F)c(-c3cccc(N4CCCCC4)c3)n2)CC1 [Compound 616, trans-N-(4-((5-fluoro-4-(3-(piperidin-1-yl)phenyl)pyrimidin-2-yl)amino)cyclohexyl)acetamide] |
| < 500 nM | NC(=O)[C@H]1CC[C@H](Nc2ncc(F)c(-c3cccc(-n4ccccc4=O)n3)n2)CC1 [Compound 617, trans-4-((5-fluoro-4-(2-oxo-2H-[1,2′-bipyridin]-6′-yl)pyrimidin-2-yl)amino)cyclohexane-1-carboxamide] |
| < 500 nM | NC(=O)[C@H]1CC[C@H](Nc2ncc(F)c(-c3cccc(C4CC4)c3)n2)CC1 [Compound 618, trans-(1r,4r)-4-((4-(3-cyclopropylphenyl)-5-fluoropyrimidin-2-yl)amino)cyclohexane-1-carboxamide] |
| < 500 nM | CC(=O)N[C@H]1CC[C@H](Nc2ncc(F)c(-c3cccc(C4CC4)c3)n2)CC1 [Compound 619, trans-N-((1r,4r)-4-((4-(3-cyclopropylphenyl)-5-fluoropyrimidin-2-yl)amino)cyclohexyl)acetamide] |
| < 500 nM | NC(=O)[C@H]1CC[C@H](Nc2ncc(F)c(-c3cccc(C4(O)CCC4)n3)n2)CC1 [Compound 620, trans-4-((5-fluoro-4-(6-(1-hydroxycyclobutyl)pyridin-2-yl)pyrimidin-2-yl)amino)cyclohexane-1-carboxamide] |
| < 500 nM | NC(=O)[C@H]1CC[C@H](Nc2ncc(F)c(-c3cccc(N4CCCOC4=O)n3)n2)CC1 [Compound 621, trans-4-((5-fluoro-4-(6-(2-oxo-1,3-oxazinan-3-yl)pyridin-2-yl)pyrimidin-2-yl)amino)cyclohexane-1-carboxamide] |
| < 500 nM | NC(=O)[C@H]1CC[C@H](Nc2ncc(F)c(-c3ccnc(N4CCCOC4=O)c3)n2)CC1 [Compound 622, trans-4-[[5-fluoro-4-[2-(2-oxo-1,3-oxazinan-3-yl)-4-pyridyl]pyrimidin-2-yl]amino]cyclohexanecarboxamide] |
| < 500 nM | NC(=O)[C@H]1CC[C@H](Nc2ncc(F)c(-c3ccnc(-n4ccccc4=O)c3)n2)CC1 [Compound 623, trans-4-((5-fluoro-4-(2-oxo-2H-[1,2′-bipyridin]-4′-yl)pyrimidin-2-yl)amino)cyclohexane-1-carboxamide] |
| < 500 nM | CC(=O)N[C@H]1CC[C@H](Nc2ncc(F)c(-c3cccc(N4CCCOC4=O)n3)n2)CC1 [Compound 624, N-(trans-4-((5-fluoro-4-(6-(2-oxo-1,3-oxazinan-3-yl)pyridin-2-yl)pyrimidin-2-yl)amino)cyclohexyl)acetamide] |
| < 500 nM | CC(=O)N[C@H]1CC[C@H](Nc2ncc(F)c(-c3cccc(N4CCCCC4=O)n3)n2)CC1 [Compound 625, N-(trans-4-((5-fluoro-4-(6-(2-oxopiperidin-1-yl)pyridin-2-yl)pyrimidin-2-yl)amino)cyclohexyl) acetamide] |
